According to patent US10975099B2, “Thiophene compounds for long-acting injectable compositions and related methods” (Alkermes Pharma Ireland Limited, priority 2018, dated 2021):
“And” between values parts separate entries of the source, which are not always exact repeats. Identical values can stand only once.

Key:
[1] = Whole blood stability assay; assay type: in vitro ADME; conditions: pooled fresh human whole blood, 37 degrees C., prodrug 50 nM; read-out: t1/2 at 37 degrees C. in human whole blood
Description: Naltrexone prodrug stability was assessed using freshly collected whole blood (within 24-hr collection) from pooled human (n=3) donors. The incubation mixtures were prepared by spiking the prodrugs into pre-warmed (37 degrees C.) fresh whole blood to a final concentration of 50 nM. After gentle mixing, aliquots of incubation mixtures were immediately transferred into four different 96-deep well plates. One plate was used for each time point. The plates were incubated at 37 degrees C. at a shaking speed of 100 rpm. At time points 15, 30, 60 and 120 minutes, the reaction was quenched by addition of a mixture of water and acetonitrile containing the internal standard (naltrexone-D3). Time point 0 minutes was prepared separately by spiking the prodrugs into a quenched whole blood to obtain a final concentration of 50 nM. All samples were vortexed at a low speed for 15 min and centrifuged at 3900 rpm for 15 min. Supernatants were transferred into 96-well plates for LC-MS/MS analysis to monitor the depletion of the prodrugs and the formation of naltrexone.
The amount of remaining prodrug and released naltrexone for each sample was quantitated against the calibration curves prepared with the whole blood. The human whole blood was purchased from BioreclamationIVT (Westbury, N.Y., USA). Naltrexone-D3 was purchased from Cerilliant® (Round Rock, Tex., USA). […] Where multiple runs have been completed, average values are reported.

[2] = Pharmacokinetic evaluation of the release of naltrexone from Compound 4 in rats following a single intramuscular injection; assay type: in vivo, Sprague-Dawley rats; conditions: for plasma concentrations of parent Compound 4 and the resultant intermediate, in words: over 84 days after single IM dose of Compound 4, limit of quantitation 0.5 ng/mL
Description: Five male Sprague-Dawley rats were allowed to acclimate to the test facility for at least 3 days prior to study start. For dose administration of Compound 4, the rats were lightly anesthetized with isofluorane, the hind leg shaved and dosed intramuscularly with the formulation using a 20 G needle. […] Serial whole blood samples were collected via sublingual route (˜150 μL) at 1, 7, and 24 hours post dose, and at 2, 4, 7, 10, 14, 21, 24, 28, 35, 42, 49, 56, 63, 70, 77, and 84 days post dose.
Blood samples were placed into K2EDTA blood collection tubes. After collection, blood samples were maintained chilled (on wet ice) and centrifuged (11,500 rpm for 2 minutes at 5 degrees C.) within 30 minutes to obtain plasma. Plasma was transferred into a single vial, 1.5 mL screw cap micro-centrifuge tube with inserts and stored at −80 degrees C. until analysis.
The formulation dosed was a crystalline suspension of Compound 4 (48.3 milligrams of Compound 4 dosed per animal), wherein the crystalline test article was characterized with a particle size distribution of Dv10=4.0 μm, Dv50=6.4 μm, and Dv90=9.6 μm (as measured via laser diffraction). The formulation was prepared the day before dosing. Details of the formulation dosed are described in Table D below.
Results of the above intramuscular rat study of Compound 4 are shown in Tables E and F. In particular, Table E reports the average blood plasma levels of naltrexone in rat (n=5) over 84 days following intramuscular administration.

O=C(CCc1ccc(CCC(=O)Oc2ccc3c4c2O[C@H]2C(=O)CC[C@@]5(O)[C@@H](C3)N(CC3CC3)CC[C@]425)s1)Oc1ccc2c3c1O[C@H]1C(=O)CC[C@@]4(O)[C@@H](C2)N(CC2CC2)CC[C@]314 [Compound 1, bis((4R,4aS,7aR,12bS)-3-(cyclopropylmethyl)-4a-hydroxy-7-oxo-2,3,4,4a,5,6,7,7a-octahydro-1H-4,12-methanobenzofuro[3,2-e]isoquinolin-9-yl) 3,3′-(thiophene-2,5-diyl)dipropionate]
half-life at 50 nM [1]: 7.2 min

O=C(Cc1cscc1CC(=O)Oc1ccc2c3c1O[C@H]1C(=O)CC[C@@]4(O)[C@@H](C2)N(CC2CC2)CC[C@]314)Oc1ccc2c3c1O[C@H]1C(=O)CC[C@@]4(O)[C@@H](C2)N(CC2CC2)CC[C@]314 [Compound 2, bis((4R,4aS,7aR,12bS)-3-(cyclopropylmethyl)-4a-hydroxy-7-oxo-2,3,4,4a,5,6,7,7a-octahydro-1H-4,12-methanobenzofuro[3,2-e]isoquinolin-9-yl) 2,2′-(thiophene-3,4-diyl)diacetate]
half-life at 50 nM [1]: < 5 min

O=C(Cc1sc(CC(=O)Oc2ccc3c4c2O[C@H]2C(=O)CC[C@@]5(O)[C@@H](C3)N(CC3CC3)CC[C@]425)c2ccccc12)Oc1ccc2c3c1O[C@H]1C(=O)CC[C@@]4(O)[C@@H](C2)N(CC2CC2)CC[C@]314 [Compound 3, bis((4R,4aS,7aR,12bS)-3-(cyclopropylmethyl)-4a-hydroxy-7-oxo-2,3,4,4a,5,6,7,7a-octahydro-1H-4,12-methanobenzofuro[3,2-e]isoquinolin-9-yl) 2,2′-(benzo[c]thiophene-1,3-diyl)diacetate]
half-life at 50 nM [1]: 41.2 min

O=C(Cc1ccc(CC(=O)Oc2ccc3c4c2O[C@H]2C(=O)CC[C@@]5(O)[C@@H](C3)N(CC3CC3)CC[C@]425)s1)Oc1ccc2c3c1O[C@H]1C(=O)CC[C@@]4(O)[C@@H](C2)N(CC2CC2)CC[C@]314 [Compound 4, bis((4R,4aS,7aR,12bS)-3-(cyclopropylmethyl)-4a-hydroxy-7-oxo-2,3,4,4a,5,6,7,7a-octahydro-1H-4,12-methanobenzofuro[3,2-e]isoquinolin-9-yl) 2,2′-(thiophene-2,5-diyl)diacetate]
concentration at 1 day ([2]; male, Sprague-Dawley, rat, plasma, intramuscular, 48.3 mg per animal, rat plasma, individual animals Rat 1-5, day 1 after single IM dose of Compound 4, read-out: Compound 4 conc.): < 0.5 ng/mL
concentration at 49 day ([2]; male, Sprague-Dawley, rat, plasma, intramuscular, 48.3 mg per animal, rat plasma, individual animals Rat 1-5, day 49 after single IM dose of Compound 4, read-out: Compound 4 conc.): < 0.5 ng/mL
concentration at 56 day ([2]; male, Sprague-Dawley, rat, plasma, intramuscular, 48.3 mg per animal, rat plasma, individual animals Rat 1-5, day 56 after single IM dose of Compound 4, read-out: Compound 4 conc.): < 0.5 ng/mL
concentration at 63 day ([2]; male, Sprague-Dawley, rat, plasma, intramuscular, 48.3 mg per animal, rat plasma, individual animals Rat 1-5, day 63 after single IM dose of Compound 4, read-out: Compound 4 conc.): < 0.5 ng/mL
concentration at 70 day ([2]; male, Sprague-Dawley, rat, plasma, intramuscular, 48.3 mg per animal, rat plasma, individual animals Rat 1-5, day 70 after single IM dose of Compound 4, read-out: Compound 4 conc.): < 0.5 ng/mL
concentration at 77 day ([2]; male, Sprague-Dawley, rat, plasma, intramuscular, 48.3 mg per animal, rat plasma, individual animals Rat 1-5, day 77 after single IM dose of Compound 4, read-out: Compound 4 conc.): < 0.5 ng/mL
concentration at 84 day ([2]; male, Sprague-Dawley, rat, plasma, intramuscular, 48.3 mg per animal, rat plasma, individual animals Rat 1-5, day 84 after single IM dose of Compound 4, read-out: Compound 4 conc.): < 0.5 ng/mL
concentration at 2 day ([2]; male, Sprague-Dawley, rat, plasma, intramuscular, 48.3 mg/animal, rat plasma, individual animals Rat 1-5, day 2 after single IM dose of Compound 4, read-out: Compound 4 conc.): < 0.5 ng/mL
concentration at 4 day ([2]; male, Sprague-Dawley, rat, plasma, intramuscular, 48.3 mg/animal, rat plasma, individual animals Rat 1-5, day 4 after single IM dose of Compound 4, read-out: Compound 4 conc.): < 0.5 ng/mL
concentration at 7 day ([2]; male, Sprague-Dawley, rat, plasma, intramuscular, 48.3 mg/animal, rat plasma, individual animals Rat 1-5, day 7 after single IM dose of Compound 4, read-out: Compound 4 conc.): < 0.5 ng/mL
concentration at 10 day ([2]; male, Sprague-Dawley, rat, plasma, intramuscular, 48.3 mg/animal, rat plasma, individual animals Rat 1-5, day 10 after single IM dose of Compound 4, read-out: Compound 4 conc.): < 0.5 ng/mL
concentration at 14 day ([2]; male, Sprague-Dawley, rat, plasma, intramuscular, 48.3 mg/animal, rat plasma, individual animals Rat 1-5, day 14 after single IM dose of Compound 4, read-out: Compound 4 conc.): < 0.5 ng/mL
concentration at 21 day ([2]; male, Sprague-Dawley, rat, plasma, intramuscular, 48.3 mg/animal, rat plasma, individual animals Rat 1-5, day 21 after single IM dose of Compound 4, read-out: Compound 4 conc.): < 0.5 ng/mL
concentration at 24 day ([2]; male, Sprague-Dawley, rat, plasma, intramuscular, 48.3 mg/animal, rat plasma, individual animals Rat 1-5, day 24 after single IM dose of Compound 4, read-out: Compound 4 conc.): < 0.5 ng/mL
concentration at 28 day ([2]; male, Sprague-Dawley, rat, plasma, intramuscular, 48.3 mg/animal, rat plasma, individual animals Rat 1-5, day 28 after single IM dose of Compound 4, read-out: Compound 4 conc.): < 0.5 ng/mL
concentration at 35 day ([2]; male, Sprague-Dawley, rat, plasma, intramuscular, 48.3 mg/animal, rat plasma, individual animals Rat 1-5, day 35 after single IM dose of Compound 4, read-out: Compound 4 conc.): < 0.5 ng/mL
concentration at 42 day ([2]; male, Sprague-Dawley, rat, plasma, intramuscular, 48.3 mg/animal, rat plasma, individual animals Rat 1-5, day 42 after single IM dose of Compound 4, read-out: Compound 4 conc.): < 0.5 ng/mL
Naltrexone conc. ([2]; rat plasma, average, day 84 after single IM dose of Compound 4 crystalline suspension (48.3 mg/animal)): BLQ* (BLQ (Below Limit of Quantitation) means <0.5 ng/mL)
Compound 4 conc. ([2]; rat plasma, individual animals Rat 1-5, day 0.04 (1 hr) after single IM dose of Compound 4): <0.5 ng/mL (4×) and 2.11 ng/mL
Compound 4 conc. ([2]; rat plasma, individual animals Rat 1-5, day 0.3 (7 hr) after single IM dose of Compound 4): 1.22 ng/mL and <0.5 ng/mL (3×) and 1.05 ng/mL
Compound 4 conc. ([2]; rat plasma, individual animals Rat 1-5, day 1 after single IM dose of Compound 4): <0.5 ng/mL (3×) and 0.501 ng/mL
Compound 4 conc. ([2]; rat plasma, individual animals Rat 1-5, day 2 after single IM dose of Compound 4): <0.5 ng/mL
Compound 4 conc. ([2]; rat plasma, individual animals Rat 1-5, day 4 after single IM dose of Compound 4): <0.5 ng/mL
Compound 4 conc. ([2]; rat plasma, individual animals Rat 1-5, day 7 after single IM dose of Compound 4): <0.5 ng/mL
Compound 4 conc. ([2]; rat plasma, individual animals Rat 1-5, day 10 after single IM dose of Compound 4): <0.5 ng/mL
Compound 4 conc. ([2]; rat plasma, individual animals Rat 1-5, day 14 after single IM dose of Compound 4): <0.5 ng/mL
Compound 4 conc. ([2]; rat plasma, individual animals Rat 1-5, day 21 after single IM dose of Compound 4): <0.5 ng/mL
Compound 4 conc. ([2]; rat plasma, individual animals Rat 1-5, day 24 after single IM dose of Compound 4): <0.5 ng/mL
Compound 4 conc. ([2]; rat plasma, individual animals Rat 1-5, day 28 after single IM dose of Compound 4): <0.5 ng/mL
Compound 4 conc. ([2]; rat plasma, individual animals Rat 1-5, day 35 after single IM dose of Compound 4): <0.5 ng/mL
Compound 4 conc. ([2]; rat plasma, individual animals Rat 1-5, day 42 after single IM dose of Compound 4): <0.5 ng/mL
Compound 4 conc. ([2]; rat plasma, individual animals Rat 1-5, day 49 after single IM dose of Compound 4): <0.5 ng/mL
Compound 4 conc. ([2]; rat plasma, individual animals Rat 1-5, day 56 after single IM dose of Compound 4): <0.5 ng/mL
Compound 4 conc. ([2]; rat plasma, individual animals Rat 1-5, day 63 after single IM dose of Compound 4): <0.5 ng/mL
Compound 4 conc. ([2]; rat plasma, individual animals Rat 1-5, day 70 after single IM dose of Compound 4): <0.5 ng/mL
Compound 4 conc. ([2]; rat plasma, individual animals Rat 1-5, day 77 after single IM dose of Compound 4): <0.5 ng/mL
Compound 4 conc. ([2]; rat plasma, individual animals Rat 1-5, day 84 after single IM dose of Compound 4): <0.5 ng/mL
plasma concentrations of parent Compound 4 and the resultant intermediate, in words ([2]; rat): generally low to not measurable
half-life at 50 nM [1]: 4.19 min

O=C(O)Cc1ccc(CC(=O)Oc2ccc3c4c2O[C@H]2C(=O)CC[C@@]5(O)[C@@H](C3)N(CC3CC3)CC[C@]425)s1 [Compound 4i, 2-(5-(2-(((4R,4aS,7aR,12bS)-3-(cyclopropylmethyl)-4a-hydroxy-7-oxo-2,3,4,4a,5,6,7,7a-octahydro-1H-4,12-methanobenzofuro[3,2-e]isoquinolin-9-yl)oxy)-2-oxoethyl)thiophen-2-yl)acetic acid]
plasma concentrations of parent Compound 4 and the resultant intermediate, in words ([2]; rat): generally low to not measurable

O=C(Oc1ccc2c3c1O[C@H]1C(=O)CC[C@@]4(O)[C@@H](C2)N(CC2CC2)CC[C@]314)c1ccc(C(=O)Oc2ccc3c4c2O[C@H]2C(=O)CC[C@@]5(O)[C@@H](C3)N(CC3CC3)CC[C@]425)cc1 [Reference Compound A, NTX-3-terephthaloyl-NTX, reference compound]
half-life at 50 nM [1]: 54.7 min
